In the experiment the target is human full-length PDE2A3 enzyme (Homo sapiens (Human), UniProt O00408). The settings on record: read-out: IC50 (assay validation control); PDE2A3 SPA validation; IC50 values obtained were within 3× of literature values.
Chain of human full-length PDE2A3 enzyme (O00408 whole entry): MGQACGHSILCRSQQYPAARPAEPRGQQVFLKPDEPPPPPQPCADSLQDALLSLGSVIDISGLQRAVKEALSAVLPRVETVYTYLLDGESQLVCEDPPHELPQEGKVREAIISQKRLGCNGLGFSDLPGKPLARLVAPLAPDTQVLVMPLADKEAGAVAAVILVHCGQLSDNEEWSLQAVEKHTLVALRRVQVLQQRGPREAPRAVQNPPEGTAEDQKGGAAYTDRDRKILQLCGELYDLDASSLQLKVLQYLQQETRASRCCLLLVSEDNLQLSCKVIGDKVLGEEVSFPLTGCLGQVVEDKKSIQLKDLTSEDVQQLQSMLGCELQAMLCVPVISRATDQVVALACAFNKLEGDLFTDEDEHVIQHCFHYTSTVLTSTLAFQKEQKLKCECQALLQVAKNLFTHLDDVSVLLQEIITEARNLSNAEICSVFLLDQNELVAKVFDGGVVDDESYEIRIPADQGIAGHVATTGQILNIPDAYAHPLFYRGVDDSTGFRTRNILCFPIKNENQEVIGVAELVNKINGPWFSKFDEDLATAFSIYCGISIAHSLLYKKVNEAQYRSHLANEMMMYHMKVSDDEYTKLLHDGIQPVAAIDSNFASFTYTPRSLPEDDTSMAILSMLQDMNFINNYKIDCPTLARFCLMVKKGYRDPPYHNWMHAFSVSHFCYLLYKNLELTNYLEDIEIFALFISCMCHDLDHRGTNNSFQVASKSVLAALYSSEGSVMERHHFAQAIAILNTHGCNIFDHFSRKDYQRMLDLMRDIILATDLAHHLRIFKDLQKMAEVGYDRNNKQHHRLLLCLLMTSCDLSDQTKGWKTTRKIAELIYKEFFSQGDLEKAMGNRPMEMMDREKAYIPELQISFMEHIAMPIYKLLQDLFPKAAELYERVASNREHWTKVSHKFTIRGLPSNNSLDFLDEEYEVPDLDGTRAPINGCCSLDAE

Protocol: Measurement of Recombinant Human PDE2A3 Inhibition by SPA Technology
In the present assay, the activity of the test substances on human full-length PDE2A3 enzyme was determined using the [^3H]-cGMP scintillation proximity assay (SPA) modified from the Amersham TRKQ7100 instructions (GE Healthcare, USA). PDE2A3 protein was obtained from FLAG purification of sf21 insect cells using standard affinity purification procedures for this tag (anti-FLAG M2, Sigma Aldrich). Briefly, the SPA assays were performed using PDE SPA yttrium silicate beads (Perkin Elmer RPNQ0024) which bind preferentially to the linear nucleotide, GMP, compared to the cyclic nucleotide, cGMP. The, ^3H-GMP product was detected using a Wallac MicroBeta scintillation counter. The reaction time was chosen with respect to the amount of time in which 10-20% of substrate was hydrolyzed by the enzyme.
The corresponding IC50 values of the compounds for the inhibition of PDE activities are determined from the concentration-effect curves by means of non-linear regression.

Turning to `CCCCCC[C@@H]([C@@H](C)O)n1cnc2c(N)ncnc21` (racemic) [EHNA], the IC50 – broadly, the concentration that gives 50% inhibition – was 1700 nM.

Values taken from patent US8598155B2, “Imidazo[5,1-f][1,2,4]triazines for the treatment of neurological disorders” (Pfizer Inc., priority 2011, dated 2013).
